In US11926619B2, “Certain pladienolide compounds and methods of use” (EISAI R&D MANAGEMENT CO., LTD., priority 2018, dated 2024):
Read-outs that look alike come from different tables or passages of the source.

Tests used:
[1] = tested on: Panc 05.04 cells (pancreatic cancer cells; Q699H and K700E mutations in SF3B1); experiment: Cell viability assay (CellTiter-Glo, 72 hr), Panc 05.04 cells; type: cell-based; details: Panc 05.04 cells (mutant SF3B1); for Emax: maximum achievable response in tested dose range, negative value = cellular lethality, read-out: Panc 05.04 (mt SF3B1 cells) Emax (%); for GI50: read-out: Panc 05.04 (mt SF3B1 cells), GI50
Protocol: (§1) Cells (WiDr and Panc05.04 obtained from ATCC) were seeded in 96-well plates, with 2000 cells/100 μL/well, and incubated overnight. Spent media was removed, and fresh media containing 9 different concentrations of compound (100 μL/well) were added, with DMSO concentration from compound stock solution adjusted to be 0.1%. Each compound treatment was done in duplicate or triplicate at each concentration.
(§2) Another plate with cells seeded was dedicated as a time zero (Tz) plate, to which was added 0.1% DMSO in media (100 μL/well) followed by CellTiter-Glo® reagent (Promega Corporation, Madison, Wisconsin) (50 μL/well) for ATP measurement as a surrogate of cell viability. Average value from measurement of multiple wells of this plate is used as Tz. Compound-treated plates were incubated for 72 hr at 37° C. Then, CellTiter-Glo® reagent (50 μL/well) was added and ATP was measured. Average value from measurement of the duplicate or triplicate compound-treated wells is used as Ti, and seeded plates with medium having 0.1% DMSO without compound is used as control growth (C).
(§3) Percentage growth inhibition/Percentage viability was calculated as:
(§4) [(Ti−Tz)/(C−Tz)]×100 for concentrations for which Ti>/=Tz
(§5) [(Ti−Tz)/Tz]×100 for concentrations for which Ti<Tz.
(§6) *time zero (Tz), control growth (C), and test growth in the presence of compound (Ti) Percentage growth inhibition/Percentage viability are plotted versus compound concentration to determine Emax.
(§7) Emax refers to the maximum achievable response to a compound in a tested dose range, with a negative value indicating cellular lethality. A larger negative Emax value indicates greater cellular lethality for a particular compound.

SF3b complexes = target: T1, SF3b complexes (Homo sapiens, UniProt O75533+Q7RTV0); experiment: Scintillation proximity assay (SPA) with [3H]-labelled pladienolide probe; type: binding; details: wt SF3B1, read-out: SPA (wt SF3B1 cells) IC50
T1 construct: endogenous in cells
Protocol: Batch immobilization of anti-SF3B1 antibody (MBL) to anti-mouse PVT SPA scintillation beads (PerkinElmer) was prepared as follows: for every 2.5 mg of nuclear extracts, 5 μg anti-SF3B1 antibody and 1.5 mg of beads were mixed in 150 μl PBS. The antibody-bead mixture was incubated for 30 min at RT and centrifuged at 18,000 g for 5 min. 150 μl PBS was used to resuspend every 1.5 mg antibody-bead mixture. The beads were suspended and added to the prepared nuclear extracts. The slurry was incubated for 2 h at 4° C. with gentle mixing. The beads were then collected by centrifuging at 18,000 g for 5 min, and washed twice with PBS+0.1% Triton X-100. After a final centrifugation step, every 1.5 mg of beads was suspended with 150 μl of PBS. The SF3b complexes were tested for [^3H]-labelled pladienolide probe binding ([^3H]-PB), synthesized as previously described (Kotake et al., 2007). 100 μL binding reactions were prepared with 50 μl bead slurry and by adding varying concentrations of PB or PB—OH, and after 30 min pre-incubation, 2.5 nM [^3H]—PB was added. The mixture was incubated for 30 min, and luminescence signals were read using a MicroBeta2 Plate Counter (PerkinElmer). Prism 6 (Graphpad) was used for non-linear regression curve fitting of the data.

[2] = tested on: WiDr cells (colon cancer cells; wildtype SF3B1); experiment: Cell viability assay (CellTiter-Glo, 72 hr), WiDr cells; type: cell-based; details: Homo sapiens
Protocol: as §1, §2, §3, §4, §5, §6
Emax refers to the maximum achievable response to a compound in a tested dose range, with a negative value indicating cellular lethality. A larger negative Emax value indicates greater cellular lethality for a particular compound. […]

[3] = tested on: WiDr-R cells (colon cancer cells; chemically-induced SF3B1 R1074H mutant); experiment: Cell viability assay (CellTiter-Glo, 72 hr), resistant WiDr-R cells (counter-screen); type: cell-based
Protocol: as §1, §2, §3, §4, §5, §6, §7
The counter-screening of compounds in this viability assay with a “resistant” WiDr-R cell line may indicate whether these compounds have off-target effect(s).

[4] = WiDr cells (wildtype SF3B1), read-out: WiDr GI50
[5] = WiDr-R cells (SF3B1 R1074H mutation, resistant), read-out: WiDr-R GI50

Row | SMILES | Emax [1] [%] | GI50 [1] [nM] | IC50 (SF3b complexes) [nM] | GI50 [2, 4] [nM] | GI50 [3, 5] [nM] | GI50 ([2]; WiDr, read-out: WiDr GI50 (nM)) [nM] | GI50 ([3]; read-out: WiDr-R GI50 (nM)) [nM]
1 | C/C(=C\C=C\[C@@H](C)c1ccccn1)[C@H]1OC(=O)C[C@H](O)CC[C@@](C)(O)[C@@H](OC(=O)N2CC[N+](C)([O-])CC2)/C=C/[C@@H]1C | -81.2 | 45.4 | 5.89 |  |  |  | 
2 | CCO[C@]1(C)CC[C@@H](O)CC(=O)O[C@H](/C(C)=C/C=C/[C@](C)(O)C[C@H]2O[C@@H]2[C@H](C)[C@@H](O)CC)[C@@H](C)/C=C/[C@@H]1OC(=O)N1CCNCC1 | -75.4 | 1.76 | 9.23 |  |  |  | 
3 | CC[C@H](O)[C@@H](C)[C@H]1O[C@@H]1C[C@@](C)(O)/C=C/C=C(\C)[C@H]1OC(=O)C[C@H](O)CC[C@@](C)(OC)[C@@H](OC(=O)N2CCN(CCCC(=O)O)CC2)/C=C/[C@@H]1C |  |  | 14.6 |  |  |  | 
4 | CC[C@H](O)[C@@H](C)[C@H]1O[C@@H]1C[C@H](C)/C=C/C=C(\C)[C@H]1OC(=O)C[C@H](O)CC[C@@](C)(OC)[C@@H](OC(=O)N2CCN(C)CC2)/C=C/[C@@H]1C |  |  | 1.52 |  |  |  | 
5 | CC[C@H](O)[C@@H](C)[C@H]1O[C@@H]1C[C@@](C)(O)/C=C/C=C(\C)[C@H]1OC(=O)C[C@H](O)CC[C@@](C)(OC(C)=O)[C@@H](OC(=O)N2CCN(CCO)CC2)/C=C/[C@@H]1C |  |  | 24.3 |  |  |  | 
6 | CC[C@H](O)[C@@H](C)[C@H]1O[C@@H]1C[C@@](C)(O)/C=C/C=C(\C)[C@H]1OC(=O)C[C@H](O)CC[C@@](C)(OC(C)=O)[C@@H](OC(=O)N2C[C@@H]3C[C@H]2CN3)/C=C/[C@@H]1C |  |  | 16 |  |  |  | 
7 | CC(=O)O[C@H]1/C=C/[C@H](C)[C@@H](/C(C)=C/C=C/C(c2ccccn2)C(C)C)OC(=O)C[C@H](O)CC[C@@]1(C)O (some centres unmarked) |  |  | 20.9 |  |  |  | 
8 | C/C(=C\C=C\[C@@H](C)COC(=O)N1CC[C@H](C)C1)[C@H]1OC(=O)C[C@H](O)CC[C@@](C)(O)[C@@H](OC(=O)N2CCN(C3CCCCCC3)CC2)/C=C/[C@@H]1C | -93.6 | 2.59 |  | 6.2 | > 1000 |  | 
9 | CC(=O)O[C@H]1/C=C/[C@H](C)[C@@H](/C(C)=C/C=C/C(C)c2cccc([C@H](C)CO)n2)OC(=O)C[C@H](O)CC[C@@]1(C)O (some centres unmarked) | -28.2 | 408 |  | 343 | > 10000 |  | 
10 | CCCN(C)C(=O)OC[C@H](C)/C=C/C=C(\C)[C@H]1OC(=O)C[C@H](O)CC[C@@](C)(O)[C@@H](OC(=O)N2CCN(C3CCCCCC3)CC2)/C=C/[C@@H]1C | -92.4 | 279 |  |  |  | 43.4 | > 1000
11 | CC(=O)O[C@H]1/C=C/[C@H](C)[C@@H](/C(C)=C/C=C/C(C)(O)c2ccccc2)OC(=O)C[C@H](O)CC[C@@]1(C)O (some centres unmarked) | 13.3 | 1500 |  | 657 | > 10000 |  | 
12 | C/C(=C\C=C\[C@@H](C)COC(=O)N1Cc2ccccc2C1)[C@H]1OC(=O)C[C@H](O)CC[C@@](C)(O)[C@@H](OC(=O)N2CCN(C)CC2)/C=C/[C@@H]1C | -56 | 35.4 |  | 33.8 | > 1000 |  | 
13 | CC[C@H](O)[C@@H](C)[C@H]1O[C@@H]1C[C@H](C)/C=C/C=C(\C)[C@H]1OC(=O)C[C@H](O)CC[C@@](C)(OC)[C@@H](OC(=O)N2CCNCC2)/C=C/[C@@H]1C |  |  | 0.99 |  |  |  | 
14 | C/C(=C\C=C\[C@@H](C)COC(=O)N1CC[C@H](F)C1)[C@H]1OC(=O)C[C@H](O)CC[C@@](C)(O)[C@@H](OC(=O)N2CCN(C)CC2)/C=C/[C@@H]1C | -90.2 | 4.86 |  | 2.84 | > 1000 |  | 
15 | COCCN(C)C(=O)OC[C@H](C)/C=C/C=C(\C)[C@H]1OC(=O)C[C@H](O)CC[C@@](C)(O)[C@@H](OC(C)=O)/C=C/[C@@H]1C | -96.8 | 64.3 |  | 247 | > 1000 |  | 
16 | C/C(=C\C=C\[C@@H](C)COC(=O)N1CCC[C@H]1C)[C@H]1OC(=O)C[C@H](O)CC[C@@](C)(O)[C@@H](OC(=O)N2CCN(C3CCCCCC3)CC2)/C=C/[C@@H]1C |  | 2.52 |  | 1.42 | 21.8 |  | 
17 | CC(=O)O[C@H]1/C=C/[C@H](C)[C@@H](/C(C)=C/C=C/Cc2ccncc2)OC(=O)C[C@H](O)CC[C@@]1(C)O | 76.5 | > 6400 |  | 610 | > 10000 |  | 
18 | CC(=O)O[C@H]1/C=C/[C@H](C)[C@@H](/C(C)=C/C=C/C(C)Cc2ccccn2)OC(=O)C[C@H](O)CC[C@@]1(C)O (some centres unmarked) | 20.3 | 1670 |  | 911 | > 10000 |  | 
19 | CC(=O)O[C@H]1/C=C/[C@H](C)[C@@H](/C(C)=C/C=C/C(C)CCc2ccccn2)OC(=O)C[C@H](O)CC[C@@]1(C)O (some centres unmarked) | 0.954 | 972 |  | 593 | > 10000 |  | 
20 | CC(=O)O[C@H]1/C=C/[C@H](C)[C@@H](/C(C)=C/C=C/C(C)c2ccccc2)OC(=O)C[C@H](O)CC[C@@]1(C)O (some centres unmarked) | 12.3 | 932 |  | 382 | > 10000 |  | 
21 | CC[C@H](O)[C@@H](C)C(=O)OC[C@H](C)/C=C/C=C(\C)[C@H]1OC(=O)C[C@H](O)CC[C@@](C)(O)[C@@H](OC(C)=O)/C=C/[C@@H]1C | -90.5 | 31.1 |  | 42.8 | > 10000 |  | 
22 | CC[C@H](O)[C@@H](C)[C@H]1O[C@@H]1C[C@@](C)(O)/C=C/C=C(\C)[C@H]1OC(=O)C[C@H](O)CC[C@@](C)(OC)[C@@H](OC(=O)N(C)CCNC)/C=C/[C@@H]1C |  |  | 18.3 |  |  |  | 
23 | CC[C@H](O)[C@@H](C)[C@H]1O[C@@H]1C[C@@](C)(O)/C=C/C=C(\C)[C@H]1OC(=O)C[C@H](O)CC[C@@](C)(OC)[C@@H](OC(=O)N2CCNC(CCC(=O)O)C2)/C=C/[C@@H]1C (some centres unmarked) |  |  | 29.2 |  |  |  | 
24 | COC(=O)OC[C@H](C)/C=C/C=C(\C)[C@H]1OC(=O)C[C@H](O)CC[C@@](C)(O)[C@@H](OC(=O)N2CCN(C)CC2)/C=C/[C@@H]1C | -95.9 | 5.11 |  | 14.7 | > 1000 |  | 
25 | C/C(=C\C=C\C1(COC(=O)N2CCCC2)CC1)[C@H]1OC(=O)C[C@H](O)CC[C@@](C)(O)[C@@H](OC(=O)N2CCN(C3CCCCCC3)CC2)/C=C/[C@@H]1C | -24.7 | 302 |  | 138 | > 1000 |  | 
26 | C/C(=C\C=C\[C@@H](C)CN(C)C(=O)N1CCCC1)[C@H]1OC(=O)C[C@H](O)CC[C@@](C)(O)[C@@H](OC(=O)N2CCN(C3CCCCCC3)CC2)/C=C/[C@@H]1C | -94.5 | 23.5 |  | 145 | > 1000 |  | 
27 | C/C(=C\C=C\C(C)c1ccnc(N2CC[C@@H](O)C2)n1)[C@H]1OC(=O)CCCCC[C@@H](OC(=O)N2CCN(C3CCCCCC3)CC2)/C=C/[C@@H]1C (some centres unmarked) | -94.8 | 475 |  | 455 | > 10000 |  | 
28 | C/C(=C\C=C\[C@@H](C)COC(=O)N1[C@H](C)CC[C@H]1C)[C@H]1OC(=O)C[C@H](O)CC[C@@](C)(O)[C@@H](OC(=O)N2CCN(C3CCCCCC3)CC2)/C=C/[C@@H]1C | -68.9 | 4.52 |  | 2.39 | 14.8 |  | 
29 | C/C(=C\C=C\[C@@H](C)c1ccccn1)[C@H]1OC(=O)CCCCC[C@@H](OC(=O)N2CCN(C3CCCCCC3)CC2)/C=C/[C@@H]1C | -40.6 | 883 |  | 258 | 3820 |  | 
30 | CC(=O)O[C@H]1/C=C/[C@H](C)[C@@H](/C(C)=C/C=C/[C@@H](C)COC(=O)N2CCSC2)OC(=O)C[C@H](O)CC[C@@]1(C)O |  | 68 |  | 62.9 | > 1000 |  | 
